Test results reported in patent publication US10856562B2, “Flavor composition and edible compositions containing same” (MARS, INCORPORATED, priority 2013, dated 2020).
Entries after “also recorded” stand apart in the source; their conditions may differ. Square brackets hold non-standard residues; d marks the D form. Ends that are not written are not given here. pGlu = O=C1CC[C@@H](C(=O)O)N1

System: panelists
Assay: Descriptive profile (Spectrum method) of peptide in 0.2% NaCl solution, in-mouth
Type: in vivo, human
Details: for Astringent, in-mouth perception / Bitter, in-mouth perception / Flinty/Mineral, in-mouth perception / Metallic, in-mouth perception / Numbing, in-mouth perception / Salt, in-mouth perception (mean salt perception in-mouth) / Sour, in-mouth perception / Sweet, in-mouth perception: mean score, 15-point scale; for Level of the aromatics, basic tastes and chemical feeling factors in-mouth with increasing concentration: 0.1 to 40.0/50.0 ppb; for Salt perception in-mouth as the concentration increases: 0.1 to 40.0/50.0 ppb in 0.2% NaCl; for Umami like swelling of lips and tongue, in-mouth: all levels; for Umami like feeling factor of lip and tongue swelling: both in-mouth and after expectoration
Procedure: Descriptive Profiles (Flavor and Chemical Feeling Factors) of five use levels of a pGlu-Val-Leu flavor composition were determined using the Spectrum™ method. The five use levels were as follows: 0.1 ppb, 0.5 ppb, 1.0 ppb, 10.0 ppb and 40.0 ppb.
Data was collected for the flavor and chemical feeling factors of the product in-mouth for each of the five use levels according to the following protocol. One replication was collected for the flavor and chemical feeling factors of the product in-mouth. 6-9 panelists evaluated per session.
2. Each panelist tasted a test sample (0.1 ppb, 0.5 ppb, 1.0 ppb, 10.0 ppb or 40.0 ppb all in 0.2% NaCl solution). Only one sample was tasted per session.
Descriptive attributes (e.g., taste, flavor and chemical feeling factors) of six use levels of pGlu-Val-Leu (SE-13), pGlu-Val (SE-14) and pGlu-Val-Val (SE-17) flavor composition peptides were determined. The six use levels were as follows: 0.1 ppb, 0.5 ppb, 1.0 ppb, 10.0 ppb, 40.0 ppb and 50.0 ppb.
Data was collected for the attributes of the product in-mouth for the use levels according to the following protocol: • The samples were analyzed for flavor and aftertaste by six-nine members of a panel, trained and experienced in appearance, flavor and texture evaluation using the Spectrum™ method. Samples in solution were evaluated across multiple panel sessions. • The strength of each attribute was rated on a 15-point scale, where 0=none and 15=very strong. • This scale incorporates the ability to use tenths of a point and therefore has the potential of 150 scale differentiations. • The scale may be expanded beyond 15 points to include extreme ratings if necessary.
Attribute Perception Protocol • The panelists evaluated each sample using the following procedure • Descriptive Profiles (flavor and chemical feeling factors) of 5 levels of salt enhancing solutions • Individual data was collected for the flavor and chemical feeling factors of the product in-mouth • Increased Salt Perception Protocol • Each panelist tasted salt 5 reference (0.35% salt solution)—to ground themselves on salt intensity of 5.0. • Each panelist tasted the test sample (0.1 ppb, 0.5 ppb, 1.0 ppb, 10.0 ppb or 40.0/50.0 ppb all in 0.2% NaCl solution: only one per session) • Each panelist then re-tasted the salt 5 reference and rated it for salt intensity as well as any other basic taste, chemical feeling factor, or aromatic perceived. This captured any increased salt perception indicated by the test sample as well as any other perceptions present. • Return to Baseline Protocol • After evaluating the sample for salt & other perceptions, panelists re-tasted the salt 5 reference at 1 minute intervals until their perception of the salt 5 saltiness intensity had returned to 5.0. Each panelist recorded their salt intensity at each interval and took qualitative notes on other perceptions seen in aftertaste. Sample Preparation
The 0.1, 0.5, 1.0 10, 40, and 50 ppb test samples of the flavor composition peptides were prepared in water as described in table 4.
The panelists evaluated each sample for the attributes described in table 5.

[pGlu]-Val [SE-14]
Astringent, in-mouth perception (0.1 ppb in 0.2% NaCl): 0.0 | Bitter, in-mouth perception (0.1 ppb in 0.2% NaCl): 0.0 | Flinty/Mineral, in-mouth perception (0.1 ppb in 0.2% NaCl): 0.8 | Metallic, in-mouth perception (0.1 ppb in 0.2% NaCl): 0.3 | Numbing, in-mouth perception (0.1 ppb in 0.2% NaCl): 0.0 | Salt, in-mouth perception (mean salt perception in-mouth) (0.1 ppb in 0.2% NaCl): 1.8 | Sour, in-mouth perception (0.1 ppb in 0.2% NaCl): 0.0 | Sweet, in-mouth perception (0.1 ppb in 0.2% NaCl): 0.0 | Level of the aromatics, basic tastes and chemical feeling factors in-mouth with increasing concentration: does not increase | Salt perception in-mouth as the concentration increases: increases slightly; also recorded: slight increase | Astringent, in-mouth perception (0.5 ppb in 0.2% NaCl): 0.1 | Bitter, in-mouth perception (0.5 ppb in 0.2% NaCl): 0.0 | Flinty/Mineral, in-mouth perception (0.5 ppb in 0.2% NaCl): 0.6 | Metallic, in-mouth perception (0.5 ppb in 0.2% NaCl): 0.1 | Numbing, in-mouth perception (0.5 ppb in 0.2% NaCl): 0.0 | Salt, in-mouth perception (mean salt perception in-mouth) (0.5 ppb in 0.2% NaCl): 2.5 | Sour, in-mouth perception (0.5 ppb in 0.2% NaCl): 0.0 | Sweet, in-mouth perception (0.5 ppb in 0.2% NaCl): 0.0 | Astringent, in-mouth perception (1.0 ppb in 0.2% NaCl): 0.1 | Bitter, in-mouth perception (1.0 ppb in 0.2% NaCl): 0.0 | Flinty/Mineral, in-mouth perception (1.0 ppb in 0.2% NaCl): 0.9 | Metallic, in-mouth perception (1.0 ppb in 0.2% NaCl): 0.1 | Numbing, in-mouth perception (1.0 ppb in 0.2% NaCl): 0.0 | Salt, in-mouth perception (mean salt perception in-mouth) (1.0 ppb in 0.2% NaCl): 2.9 | Sour, in-mouth perception (1.0 ppb in 0.2% NaCl): 0.0 | Sweet, in-mouth perception (1.0 ppb in 0.2% NaCl): 0.0 | Astringent, in-mouth perception (10.0 ppb in 0.2% NaCl): 0.0 | Bitter, in-mouth perception (10.0 ppb in 0.2% NaCl): 0.0 | Flinty/Mineral, in-mouth perception (10.0 ppb in 0.2% NaCl): 0.9 | Metallic, in-mouth perception (10.0 ppb in 0.2% NaCl): 0.3 | Numbing, in-mouth perception (10.0 ppb in 0.2% NaCl): 0.0 | Salt, in-mouth perception (mean salt perception in-mouth) (10.0 ppb in 0.2% NaCl): 3.3 | Sour, in-mouth perception (10.0 ppb in 0.2% NaCl): 0.0 | Sweet, in-mouth perception (10.0 ppb in 0.2% NaCl): 0.0 | Astringent, in-mouth perception (50.0 ppb in 0.2% NaCl): 0.0 | Bitter, in-mouth perception (50.0 ppb in 0.2% NaCl): 0.0 | Flinty/Mineral, in-mouth perception (50.0 ppb in 0.2% NaCl): 0.7 | Metallic, in-mouth perception (50.0 ppb in 0.2% NaCl): 0.2 | Numbing, in-mouth perception (50.0 ppb in 0.2% NaCl): 0.0 | Salt, in-mouth perception (mean salt perception in-mouth) (50.0 ppb in 0.2% NaCl): 3.2 | Sour, in-mouth perception (50.0 ppb in 0.2% NaCl): 0.0 | Sweet, in-mouth perception (50.0 ppb in 0.2% NaCl): 0.0 | Umami like swelling of lips and tongue, in-mouth: Some panelists also experience Umami like swelling of lips and tongue | Umami like feeling factor of lip and tongue swelling: Shows umami like feeling factor of lip and tongue swelling

[pGlu]-Val-Leu [SE-13]
Astringent, in-mouth perception (0.1 ppb in 0.2% NaCl): 0.0 | Bitter, in-mouth perception (0.1 ppb in 0.2% NaCl): 0.0 | Flinty/Mineral, in-mouth perception (0.1 ppb in 0.2% NaCl): 0.1 | Metallic, in-mouth perception (0.1 ppb in 0.2% NaCl): 0.1 | Numbing, in-mouth perception (0.1 ppb in 0.2% NaCl): 0.0 | Salt, in-mouth perception (mean salt perception in-mouth) (0.1 ppb in 0.2% NaCl): 2.3 | Sour, in-mouth perception (0.1 ppb in 0.2% NaCl): 0.0 | Sweet, in-mouth perception (0.1 ppb in 0.2% NaCl): 0.0 | Level of the aromatics, basic tastes and chemical feeling factors in-mouth with increasing concentration: does not increase | Salt perception in-mouth as the concentration increases: does not increase notably; also recorded: Does not show a notable increase | Salt perception in-mouth as the concentration increases (listed as pGlu-Val-Leu): did not significantly increase | Astringent, in-mouth perception (0.5 ppb in 0.2% NaCl): 0.0 | Bitter, in-mouth perception (0.5 ppb in 0.2% NaCl): 0.0 | Flinty/Mineral, in-mouth perception (0.5 ppb in 0.2% NaCl): 0.3 | Metallic, in-mouth perception (0.5 ppb in 0.2% NaCl): 0.3 | Numbing, in-mouth perception (0.5 ppb in 0.2% NaCl): 0.0 | Salt, in-mouth perception (mean salt perception in-mouth) (0.5 ppb in 0.2% NaCl): 2.8 | Sour, in-mouth perception (0.5 ppb in 0.2% NaCl): 0.0 | Sweet, in-mouth perception (0.5 ppb in 0.2% NaCl): 0.2 | Astringent, in-mouth perception (1.0 ppb in 0.2% NaCl): 0.0 | Bitter, in-mouth perception (1.0 ppb in 0.2% NaCl): 0.0 | Flinty/Mineral, in-mouth perception (1.0 ppb in 0.2% NaCl): 0.5 | Metallic, in-mouth perception (1.0 ppb in 0.2% NaCl): 0.1 | Numbing, in-mouth perception (1.0 ppb in 0.2% NaCl): 0.0 | Salt, in-mouth perception (mean salt perception in-mouth) (1.0 ppb in 0.2% NaCl): 2.3 | Sour, in-mouth perception (1.0 ppb in 0.2% NaCl): 0.0 | Sweet, in-mouth perception (1.0 ppb in 0.2% NaCl): 0.0 | Astringent, in-mouth perception (10.0 ppb in 0.2% NaCl): 0.0 | Bitter, in-mouth perception (10.0 ppb in 0.2% NaCl): 0.0 | Flinty/Mineral, in-mouth perception (10.0 ppb in 0.2% NaCl): 0.3 | Metallic, in-mouth perception (10.0 ppb in 0.2% NaCl): 0.1 | Numbing, in-mouth perception (10.0 ppb in 0.2% NaCl): 0.0 | Salt, in-mouth perception (mean salt perception in-mouth) (10.0 ppb in 0.2% NaCl): 3.1 | Sour, in-mouth perception (10.0 ppb in 0.2% NaCl): 0.0 | Sweet, in-mouth perception (10.0 ppb in 0.2% NaCl): 0.0 | Astringent, in-mouth perception (40.0 ppb in 0.2% NaCl): 0.0 | Bitter, in-mouth perception (40.0 ppb in 0.2% NaCl): 0.0 | Flinty/Mineral, in-mouth perception (40.0 ppb in 0.2% NaCl): 0.4 | Metallic, in-mouth perception (40.0 ppb in 0.2% NaCl): 0.1 | Numbing, in-mouth perception (40.0 ppb in 0.2% NaCl): 0.0 | Salt, in-mouth perception (mean salt perception in-mouth) (40.0 ppb in 0.2% NaCl): 2.8 | Sour, in-mouth perception (40.0 ppb in 0.2% NaCl): 0.0 | Sweet, in-mouth perception (40.0 ppb in 0.2% NaCl): 0.0 | Umami like swelling of lips and tongue, in-mouth: Panelists also experience Umami like swelling of lips and tongue | Umami like feeling factor of lip and tongue swelling: Shows umami like feeling factor of lip and tongue swelling

[pGlu]-Val-Val [SE-17]
Astringent, in-mouth perception (0.1 ppb in 0.2% NaCl): 0.0 | Bitter, in-mouth perception (0.1 ppb in 0.2% NaCl): 0.0 | Flinty/Mineral, in-mouth perception (0.1 ppb in 0.2% NaCl): 0.7 | Metallic, in-mouth perception (0.1 ppb in 0.2% NaCl): 0.0 | Numbing, in-mouth perception (0.1 ppb in 0.2% NaCl): 0.0 | Salt, in-mouth perception (mean salt perception in-mouth) (0.1 ppb in 0.2% NaCl): 3.1 | Sour, in-mouth perception (0.1 ppb in 0.2% NaCl): 0.0 | Sweet, in-mouth perception (0.1 ppb in 0.2% NaCl): 0.0 | Level of the aromatics, basic tastes and chemical feeling factors in-mouth with increasing concentration: does not increase | Salt perception in-mouth as the concentration increases: does not increase notably; also recorded: Does not show a notable increase; also recorded: did not necessarily increase | Astringent, in-mouth perception (0.5 ppb in 0.2% NaCl): 0.0 | Bitter, in-mouth perception (0.5 ppb in 0.2% NaCl): 0.0 | Flinty/Mineral, in-mouth perception (0.5 ppb in 0.2% NaCl): 0.8 | Metallic, in-mouth perception (0.5 ppb in 0.2% NaCl): 0.3 | Numbing, in-mouth perception (0.5 ppb in 0.2% NaCl): 0.0 | Salt, in-mouth perception (mean salt perception in-mouth) (0.5 ppb in 0.2% NaCl): 4.0 | Sour, in-mouth perception (0.5 ppb in 0.2% NaCl): 0.0 | Sweet, in-mouth perception (0.5 ppb in 0.2% NaCl): 0.0 | Astringent, in-mouth perception (1.0 ppb in 0.2% NaCl): 0.0 | Bitter, in-mouth perception (1.0 ppb in 0.2% NaCl): 0.0 | Flinty/Mineral, in-mouth perception (1.0 ppb in 0.2% NaCl): 0.5 | Metallic, in-mouth perception (1.0 ppb in 0.2% NaCl): 0.0 | Numbing, in-mouth perception (1.0 ppb in 0.2% NaCl): 0.0 | Salt, in-mouth perception (mean salt perception in-mouth) (1.0 ppb in 0.2% NaCl): 2.8 | Sour, in-mouth perception (1.0 ppb in 0.2% NaCl): 0.0 | Sweet, in-mouth perception (1.0 ppb in 0.2% NaCl): 0.0 | Astringent, in-mouth perception (10.0 ppb in 0.2% NaCl): 0.0 | Bitter, in-mouth perception (10.0 ppb in 0.2% NaCl): 0.0 | Flinty/Mineral, in-mouth perception (10.0 ppb in 0.2% NaCl): 0.5 | Metallic, in-mouth perception (10.0 ppb in 0.2% NaCl): 0.0 | Numbing, in-mouth perception (10.0 ppb in 0.2% NaCl): 0.0 | Salt, in-mouth perception (mean salt perception in-mouth) (10.0 ppb in 0.2% NaCl): 3.6 | Sour, in-mouth perception (10.0 ppb in 0.2% NaCl): 0.0 | Sweet, in-mouth perception (10.0 ppb in 0.2% NaCl): 0.0 | Astringent, in-mouth perception (50.0 ppb in 0.2% NaCl): 0.0 | Bitter, in-mouth perception (50.0 ppb in 0.2% NaCl): 0.0 | Flinty/Mineral, in-mouth perception (50.0 ppb in 0.2% NaCl): 0.5 | Metallic, in-mouth perception (50.0 ppb in 0.2% NaCl): 0.0 | Numbing, in-mouth perception (50.0 ppb in 0.2% NaCl): 0.0 | Salt, in-mouth perception (mean salt perception in-mouth) (50.0 ppb in 0.2% NaCl): 3.9 | Sour, in-mouth perception (50.0 ppb in 0.2% NaCl): 0.0 | Sweet, in-mouth perception (50.0 ppb in 0.2% NaCl): 0.0 | Umami like swelling of lips and tongue, in-mouth: Some panelists also experience Umami like swelling of lips and tongue | Umami like feeling factor of lip and tongue swelling: Shows umami like feeling factor of lip and tongue swelling | Levels of salt perception in-mouth, comparison of SE-13, SE-14 and SE-17 (overall): highest levels
